Values of other authors as cited in patent US7727757B2, “Methods of eliciting antiviral immune responses utilizing viral particles comprising photoinactivated reverse transcriptase” (priority 1998, dated 2010).
Entries after “also recorded” stand apart in the source; their conditions may differ.

What was measured:
HIV infected cells = settings: compound provided to HIV infected cells
HIV = settings: short exposure, without photoinactivation
[1] = biological target: HIV-1 reverse transcriptase (Human immunodeficiency virus type 1 group M subtype B, UniProt P04585); settings: for inhibition of RT (in words): prior-art statement; for IC50: value stated without method or source, used to set the incubation concentration, read-out: IC50 (50% inhibitory concentration)

Row | Compound | infectivity of nascent virus from HIV infected cells (HIV infected cells) | HIV infectivity after exposure of isolated virus (HIV) | inhibition of ERT in HIV virions (ERT in HIV virions) | inhibition of RT (in words) [1] | IC50 [1] [nM]
1 | CC(C)=CCOc1cc(NC(=S)c2ccoc2C)ccc1Cl [UC781™, N-[4-chloro-3-(3-methyl-2-butenyloxy)phenyl]-2-methyl-3-furanocarbothiamide] | production of noninfectious nascent virus; also recorded: inactivate nascent virus from HIV-infected cells | eliminate HIV infectivity | inhibit ERT in HIV virions | potent inhibitors of RT | 0.2
2 | CCN1c2cc(N=[N+]=[N-])ccc2N(C)C(=O)c2cccnc21 [azido dipyridodiazepinona, 9-Azido-5,6-dihydro-11-ethyl-6-methyl-11H-pyrido[2,3-b][1,5]benzodiazepin-5-one] |  |  |  | potent inhibitors of RT | 160
